{
  "source": "patent US7045529B2",
  "about": "“Imidazopyrimidinyl and imidazopyri dinyl derivatives” (Bristol-Myers Squibb Company, priority 1999, dated 2006)",
  "key": {"[1]": {"tested_on": "“anxiogenic” effects of CRF", "settings": "cited from earlier work; for effect on the “anxiogenic” effects / actions of CRF in the conflict test: rats, literature (Britton et al.)"}},
  "data": [
    {"smiles": "CCOC(=O)c1ncn2c1CN(C)C(=O)c1cc(F)ccc1-2", "note": "[Ro15-1788]", "values": [
      {"measurement": "behavioral activity alone in the operant conflict test", "setting": "[1]; compound alone, without CRF, literature (Britton et al. 1988)", "value": "without behavioral activity alone"},
      {"measurement": "effect on the “anxiogenic” effects / actions of CRF in the conflict test", "setting": "[1]", "value": "reversed the effects of CRF in a dose-dependent manner"}
    ]},
    {"smiles": "CCCC(C)n1c(CC)nc2c(-c3ccc(OC(F)F)cc3Cl)ncnc21", "note": "(centres unmarked) [Example 10, 6-(2-Chloro-4-difluoromethoxyphenyl)-8-ethyl-9-(2-pentyl)purine]", "values": [
      {"measurement": "melting point", "value": "99 to 100", "unit": "°C"}
    ]},
    {"smiles": "CNC(=O)c1cc2c(cn1)[nH]c1ccccc12", "note": "[FG7142]", "values": [
      {"measurement": "effect on the “anxiogenic” effects / actions of CRF in the conflict test", "setting": "[1]", "value": "enhanced the actions of CRF"}
    ]},
    {"smiles": "CCc1nc2c(-c3ccc(OC(F)(F)F)cc3Cl)ncnc2n1C(C1CC1)C1CC1", "note": "[Example 8, 6-(2-Chloro-4-trifluoromethoxyphenyl)-9-dicyclopropylmethyl-8-ethylpurine]", "values": [
      {"measurement": "melting point", "value": "119 to 120", "unit": "°C"}
    ]}
  ]
}
